Activity calls are given as the source filed them. No cut-off for these calls is given here.

One series has as its system Cynomolgus monkey. In words: Increase in TNF-alpha level in cynomolgus monkey serum at 3000 ng/kg, administered intranasally after 6 hrs. The conditions noted are these: Macaca fascicularis. The series is classed as functional, organism-based.
In series [1] the target is T1, Toll-like receptor 7 (Macaca fascicularis) (UniProt B3Y652).
T1 sequence (whole entry): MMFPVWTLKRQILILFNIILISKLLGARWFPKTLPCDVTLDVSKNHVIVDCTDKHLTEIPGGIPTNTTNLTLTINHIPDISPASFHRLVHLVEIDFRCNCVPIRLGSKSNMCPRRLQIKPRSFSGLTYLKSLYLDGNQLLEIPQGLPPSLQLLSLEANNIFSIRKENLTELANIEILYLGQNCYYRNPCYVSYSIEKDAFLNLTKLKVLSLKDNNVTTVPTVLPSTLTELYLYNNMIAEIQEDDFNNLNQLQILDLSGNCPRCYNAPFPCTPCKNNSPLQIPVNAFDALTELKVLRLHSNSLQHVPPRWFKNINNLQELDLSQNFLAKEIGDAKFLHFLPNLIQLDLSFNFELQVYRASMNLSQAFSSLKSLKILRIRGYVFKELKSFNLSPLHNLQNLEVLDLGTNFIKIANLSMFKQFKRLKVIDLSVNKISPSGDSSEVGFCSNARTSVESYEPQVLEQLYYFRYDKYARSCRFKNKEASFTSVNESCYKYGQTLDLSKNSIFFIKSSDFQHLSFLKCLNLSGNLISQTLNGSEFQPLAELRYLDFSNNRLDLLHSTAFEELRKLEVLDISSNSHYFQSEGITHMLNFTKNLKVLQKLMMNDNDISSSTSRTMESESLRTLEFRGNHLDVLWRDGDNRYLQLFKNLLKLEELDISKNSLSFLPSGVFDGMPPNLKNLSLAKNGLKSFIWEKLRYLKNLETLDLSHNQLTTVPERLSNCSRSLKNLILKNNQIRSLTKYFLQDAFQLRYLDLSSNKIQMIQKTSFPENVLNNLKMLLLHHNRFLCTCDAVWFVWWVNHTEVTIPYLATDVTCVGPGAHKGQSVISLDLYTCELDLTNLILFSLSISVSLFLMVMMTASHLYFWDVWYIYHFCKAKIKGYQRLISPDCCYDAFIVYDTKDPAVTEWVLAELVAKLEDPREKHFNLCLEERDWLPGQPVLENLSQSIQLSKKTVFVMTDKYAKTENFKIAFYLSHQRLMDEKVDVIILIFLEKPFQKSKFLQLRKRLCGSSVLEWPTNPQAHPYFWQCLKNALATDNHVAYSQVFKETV
In words: In vivo target occupancy at TLR7 in cynomolgus monkey assessed as fold increase in OAS2 mRNA expression in nasal scrape at 30 ng/kg administered intranasally incubated for 24 hrs by TaqMan analysis (reference value: 1). Type of series: functional. For orientation: Real-time PCR tracks product formation cycle by cycle.

A further series deals with PBMC. In words: Immunomodulatory activity in human PBMC assessed as IFNalpha production incubated for 6 days in presence of allergen timothy grass. The series is classed as functional, cell-based. The conditions noted are these: time 6.0 day.
Series [2] deals with T2, Toll-like receptor 7 (Homo sapiens, UniProt Q9NYK1).
T2 sequence (Q9NYK1 whole entry): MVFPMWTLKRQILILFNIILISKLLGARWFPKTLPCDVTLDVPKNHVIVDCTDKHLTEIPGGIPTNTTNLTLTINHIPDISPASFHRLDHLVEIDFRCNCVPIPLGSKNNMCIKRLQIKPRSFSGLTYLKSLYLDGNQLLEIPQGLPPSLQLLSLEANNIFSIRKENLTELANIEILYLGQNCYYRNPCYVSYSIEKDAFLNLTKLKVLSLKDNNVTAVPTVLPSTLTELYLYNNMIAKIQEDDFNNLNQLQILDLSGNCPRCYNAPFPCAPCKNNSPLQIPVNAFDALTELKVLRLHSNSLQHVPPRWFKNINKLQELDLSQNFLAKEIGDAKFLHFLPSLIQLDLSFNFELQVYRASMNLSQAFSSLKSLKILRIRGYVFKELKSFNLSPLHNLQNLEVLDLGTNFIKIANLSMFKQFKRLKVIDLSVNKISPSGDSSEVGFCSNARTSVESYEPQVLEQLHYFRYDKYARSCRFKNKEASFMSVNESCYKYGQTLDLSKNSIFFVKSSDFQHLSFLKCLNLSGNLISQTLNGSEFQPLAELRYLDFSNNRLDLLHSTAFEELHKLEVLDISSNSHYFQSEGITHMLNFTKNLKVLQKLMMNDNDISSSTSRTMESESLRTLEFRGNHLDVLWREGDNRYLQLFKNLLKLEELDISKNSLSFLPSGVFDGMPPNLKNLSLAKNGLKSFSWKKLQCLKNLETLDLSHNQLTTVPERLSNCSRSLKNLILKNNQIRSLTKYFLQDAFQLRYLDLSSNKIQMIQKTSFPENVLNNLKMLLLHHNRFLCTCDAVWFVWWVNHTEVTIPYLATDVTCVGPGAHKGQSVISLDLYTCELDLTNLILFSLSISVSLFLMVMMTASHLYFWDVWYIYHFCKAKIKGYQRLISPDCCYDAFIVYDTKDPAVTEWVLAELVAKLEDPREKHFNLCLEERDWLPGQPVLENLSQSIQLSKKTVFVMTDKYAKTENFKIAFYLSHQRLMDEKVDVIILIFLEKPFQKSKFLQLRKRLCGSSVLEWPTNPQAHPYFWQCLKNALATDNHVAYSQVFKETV
In words: Agonist activity at TLR7 in human whole blood assessed as induction of IL-12p70 production after 20 hrs by electrochemiluminescence assay. Type of series: tissue-based.

Series [3] addresses T3, Toll-like receptor 7 (Macaca fascicularis, UniProt B3Y652).
T3 sequence (B3Y652 whole entry): T1 sequence (whole entry)
In words: Agonist activity at TLR7 in cynomolgus monkey whole blood assessed as induction of IFNalpha production. The series is classed as tissue-based.

Series [4] deals with T1, Toll-like receptor 7 (Macaca fascicularis). The experiment in a line: In vivo target occupancy at TLR7 in cynomolgus monkey assessed as fold increase in OAS2 mRNA expression in nasal scrape at 3 ng/kg administered intranasally incubated for 24 hrs by TaqMan analysis (reference value: 1). The series is classed as functional.
The nature of series [5]: Systemic clearance in mouse. The series is classed as ADME, organism-based. The conditions noted are these: in vivo.
The next series deals with Mus musculus. The experiment in a line: Increase in IP-10 level in BALB/c mouse serum at 0.1 mg/kg, administered intranasally after 2 hrs by ELISA. Type of series: functional, organism-based.
The target of series [6] is T1, Toll-like receptor 7 (Macaca fascicularis). The experiment in a line: In vivo target occupancy at TLR7 in cynomolgus monkey assessed as fold increase in GBP1 mRNA expression in nasal scrape at 30 ng/kg administered intranasally incubated for 24 hrs by TaqMan analysis (reference value: 2.4). The series is classed as functional.
The target in series [7] is T2, Toll-like receptor 7. In words: Agonist activity at TLR7 in human whole blood assessed as induction of TNFalpha production after 20 hrs by electrochemiluminescence assay. Type of series: tissue-based.
Series [8] concerns the target T2, Toll-like receptor 7. In words: Agonist activity at TLR7 in human PBMC assessed as IFN-alpha production after 24 hrs by electrochemiluminescence assay. Type of series: cell-based.
Series [9] in a line: Toxicity in male rat assessed as NOAEL after 8 weeks. The conditions noted are these: in vivo.
A short description of series [10]: Ocular toxicity in monkey assessed as aqueous cells and aqueous flare at 1000 ug/ml, post single dose administration after 6 hrs. The arrangement: species or system Macaca mulatta. The conditions noted are these: rhesus monkey, in vivo, dose 1000 µg/ml.
Series [11] can be described thus: Bioavailability in rat after intranasal administration. The series is classed as ADME, organism-based. The note with it: in vivo, inhaled or intranasal.
Series [12] in a line: Bioavailability in mouse after intranasal administration. The series is classed as ADME, organism-based. The note with it: in vivo, inhaled or intranasal.
Series [13] concerns the target T2, Toll-like receptor 7. In words: Agonist activity at TLR7 in human whole blood assessed as induction of IFNalpha production after 20 hrs by electrochemiluminescence assay. Type of series: tissue-based.

For `CCC[C@H](C)Oc1nc(N)c2[nH]c(=O)n(CCCCCN3CCCCC3)c2n1` [GSK-2245035], in the series with Cynomolgus monkey, the result was inactive. Further, the fold change (FC) is 180 in series [1], 128 in [4] and 97.6 in series [6]. The outcome in the series with PBMC and in the series on Mus musculus was Active. The EC50 (commonly the concentration needed to bring the measured effect to its halfway point) on Toll-like receptor 7 [2] is 0.0631 µM; at Toll-like receptor 7 [3] it was 0.0794 µM; at Toll-like receptor 7 [7] it was 10 µM; on Toll-like receptor 7 [8], 0.00794 µM; on Toll-like receptor 7 [13], 0.000891 µM. The clearance – broadly, the rate of elimination divided by the concentration – in series [5] came to 107 mL/min/kg. Further, the no-observed-adverse-effect level (NOAEL) (commonly the highest dose or exposure tested at which no adverse effect was seen) at 1344 h in series [9] amounted to 0.406 mg/kg. In series [10], the Activity result is recorded as “Toxic”. Further, the bioavailability – broadly, dose-corrected exposure relative to a reference, in per cent – in [11] stood at 12%; in series [12], 42%.

The values above are taken from ChEMBL document CHEMBL5252515, “Discovery of 6-Amino-2-{[(1S)-1-methylbutyl]oxy}-9-[5-(1-piperidinyl)pentyl]-7,9-dihydro-8H-purin-8-one (GSK2245035), a Highly Potent and Selective Intranasal Toll-Like Receptor 7 Agonist for the Treatment of Asthma” (J Med Chem, 2016).
